In patent US20030092684A1, “Compositions and methods for treating hemorrhagic virus infections and other disorders” (priority 1999, published 2003):
Values joined by “and” are separate entries in the source; they are usually repeats but may differ in a detail not shown here. Identical values can stand only once. Like-named read-outs stand apart in the source and are kept apart here.

Experiments:
[1] = test system: IL-1, TNF, IL-1RA and sTNFr; experiment: Serum IL-1, TNF, IL-1RA and sTNFr during treatment of Dengue virus infection (Example 2); format: in vivo, BALB/c mice
[2] = 58 mg/kg i.m. during 17 day period without virus injection
[3] = test system: IL-1, TNF, IL-1 RA and sTNFr; experiment: Serum IL-1, TNF, IL-1RA and sTNFr after Doxycycline injection in uninfected mice (Group 1); format: in vivo, BALB/c mice; details: 58 mg/kg i.m. every day for 4 days
[4] = test system: Dengue virus, type 2; parameters: species or system BALB/c mice; details: mouse, in vivo
[5] = test system: Marburg virus strain Popp; parameters: species or system guinea-pigs; details: guinea pig, in vivo; monohydrate
[6] = test system: Lassa virus strain Josiah; parameters: species or system BALB/c mice; details: mouse, in vivo
[7] = test system: IL-1, IL-1Ra, TNF and soluble TNF receptor (sTNFR); parameters: species or system BALB/c mice; details: mouse, in vivo
[8] = 7 day period without viral infection
[9] = day 0, 58 mg/kg i.m. daily day 2-5 after infection (Group 3)
[10] = day 0, 58 mg/kg i.m. daily day 3-5 after infection (Group 4)
[11] = day 1, 58 mg/kg i.m. daily day 2-5 after infection (Group 3)
[12] = day 1, 58 mg/kg i.m. daily day 3-5 after infection (Group 4)
[13] = day 2, 58 mg/kg i.m. daily day 2-5 after infection (Group 3)
[14] = day 2, 58 mg/kg i.m. daily day 3-5 after infection (Group 4)
[15] = day 3, 58 mg/kg i.m. daily day 2-5 after infection (Group 3)
[16] = day 3, 58 mg/kg i.m. daily day 3-5 after infection (Group 4)
[17] = day 4, 58 mg/kg i.m. daily day 2-5 after infection (Group 3)
[18] = day 4, 58 mg/kg i.m. daily day 3-5 after infection (Group 4)
[19] = day 5, 58 mg/kg i.m. daily day 2-5 after infection (Group 3)
[20] = day 5, 58 mg/kg i.m. daily day 3-5 after infection (Group 4)

## CC1c2cccc(O)c2C(=O)C2=C(O)C3(O)C(=O)C(C(N)=O)=C(O)C(N(C)C)C3C(O)C21.O (centres unmarked) [Doxycycline, 4-(Dimethylamino)-1,4,4a,5,5a,6,11,12a-octahydro-3,5,10,12,12a-pentahydroxy-6-methyl-1, 11-dioxo-2-naphthacenecarboxamide monohydrate]
[1]; [9]
  I + II: 0.151
  IL-1: 2.95 pg/mL
  IL-1/IL-IRA (I): 0.083
  IL-IRA: 30 pg/mL
  TNF: 1.17 pg/mL
  TNF/sTNF (II): 0.068
  sTNFrl: 17 pg/mL
[1]; [10]
  I + II: 0.151
  IL-1: 2.95 pg/mL
  IL-1/IL-IRA (I): 0.083
  IL-IRA: 30 pg/mL
  TNF: 1.17 pg/mL
  TNF/sTNF (II): 0.068
  sTNFrl: 17 pg/mL
[1]; [11]
  I + II: 0.407
  IL-1: 10.6 pg/mL
  IL-1/IL-IRA (I): 0.151
  IL-IRA: 70 pg/mL
  TNF: 8.19 pg/mL
  TNF/sTNF (II): 0.256
  sTNFrl: 32 pg/mL
[1]; [12]
  I + II: 0.407
  IL-1: 10.6 pg/mL
  IL-1/IL-IRA (I): 0.151
  IL-IRA: 70 pg/mL
  TNF: 8.19 pg/mL
  TNF/sTNF (II): 0.256
  sTNFrl: 32 pg/mL
[1]; [13]
  I + II: 0.985
  IL-1: 16.8 pg/mL
  IL-1/IL-IRA (I): 0.258
  IL-IRA: 65 pg/mL
  TNF: 26.9 pg/mL
  TNF/sTNF (II): 0.727
  sTNFrl: 37 pg/mL
[1]; [14]
  I + II: 0.985
  IL-1: 16.8 pg/mL
  IL-1/IL-IRA (I): 0.258
  IL-IRA: 65 pg/mL
  TNF: 26.9 pg/mL
  TNF/sTNF (II): 0.727
  sTNFrl: 37 pg/mL
[1]; [15]
  I + II: 0.643
  IL-1: 17.9 pg/mL
  IL-1/IL-IRA (I): 0.211
  IL-IRA: 85 pg/mL
  TNF: 19.89 pg/mL
  TNF/sTNF (II): 0.432
  sTNFrl: 46 pg/mL
[1]; [16]
  I + II: 1.161
  IL-1: 26.7 pg/mL
  IL-1/IL-IRA (I): 0.381
  IL-IRA: 70 pg/mL
  TNF: 35.1 pg/mL
  TNF/sTNF (II): 0.780
  sTNFrl: 45 pg/mL
[1]; [17]
  I + II: 0.809
  IL-1: 24.18 pg/mL
  IL-1/IL-IRA (I): 0.318
  IL-IRA: 76 pg/mL
  TNF: 24.57 pg/mL
  TNF/sTNF (II): 0.491
  sTNFrl: 50 pg/mL
[1]; [18]
  I + II: 1.375
  IL-1: 30.42 pg/mL
  IL-1/IL-IRA (I): 0.400
  IL-IRA: 76 pg/mL
  TNF: 46.8 pg/mL
  TNF/sTNF (II): 0.975
  sTNFrl: 48 pg/mL
[1]; [19]
  I + II: 4.14
  IL-1: 30.42 pg/mL
  IL-1/IL-IRA (I): 0.390
  IL-IRA: 78 pg/mL
  TNF: 262.5 pg/mL
  TNF/sTNF (II): 3.75
  sTNFrl: 70 pg/mL
[1]; [20]
  I + II: 5.256
  IL-1: 36.6 pg/mL
  IL-1/IL-IRA (I): 0.435
  IL-IRA: 84 pg/mL
  TNF: 337.5 pg/mL
  TNF/sTNF (II): 4.821
  sTNFrl: 70 pg/mL
[2]
  toxicity to control groups: not toxic
[2]; of 6 guinea pigs
  survival: 6
[3]; day 0, before the injection
  I + II: 0.166
  IL-1: 2.95 pg/mL
  IL-1/IL-IRA (I): 0.098
  IL-IRA: 30 pg/mL
  TNF: 1.17 pg/mL
  TNF/sTNFrl (II): 0.068
  sTNFrl: 17 pg/mL
[3]; day 1 after the injection
  I + II: 0.187
  IL-1: 20.62 pg/mL
  IL-1/IL-IRA (I): 0.115
  IL-IRA: 180 pg/mL
  TNF: 4.68 pg/mL
  TNF/sTNFrl (II): 0.072
  sTNFrl: 85 pg/mL
[3]; day 2 after the injection
  I + II: 0.753
  IL-1: 17.43 pg/mL
  IL-1/IL-IRA (I): 0.291
  IL-IRA: 60 pg/mL
  TNF: 17.55 pg/mL
  TNF/sTNFrl (II): 0.462
  sTNFrl: 38 pg/mL
[3]; day 3 after the injection
  I + II: 0.486
  IL-1: 17.48 pg/mL
  IL-1/IL-IRA (I): 0.219
  IL-IRA: 80 pg/mL
  TNF: 9.36 pg/mL
  TNF/sTNFrl (II): 0.267
  sTNFrl: 35 pg/mL
[3]; day 4 after the injection
  I + II: 0.318
  IL-1: 17.93 pg/mL
  IL-1/IL-IRA (I): 0.102
  IL-IRA: 175 pg/mL
  TNF: 8.19 pg/mL
  TNF/sTNFrl (II): 0.216
  sTNFrl: 38 pg/mL
[4]
  Survival/dead: 0/10
  mice dead on 4 day: 4 mice - on 4 day
  mice dead on 5 day: 5 mice - on 5 day
  mice dead on 6 day: 1 mice - on 6 day
  mice dead on day 6: 10 mice on day 6
[4]; 58 mg/kg, monohydrate
  Survival/dead: 10/0 and 0/10 and 6/4 and 2/4 and 1/3 and 0/1
[5]
  m.t.d. (mean time to death): 7.6 and 8.54 and 7.69
[6]
  survival: 70%
[6]; 58 mg/kg
  death: 6
[7]
  increase of the ratio of IL-1/IL-1Ra over the base level: about 5 fold
[8]
  toxicity to control groups: not toxic
[8]; of 20 mice
  death: 0
  survival: 20
